Measured values from paper doi:10.1101/2025.08.20.671340v1 (biorxiv, 2025).

Columns and labels:
[1] = target: T1, hAChE (human acetylcholinesterase) (Homo sapiens, UniProt P22303); assay: enzyme inhibition assay; assay type: biochemical
[2] = physchem; details: pbs
[3] = target: T1, hAChE (human acetylcholinesterase); assay: enzyme inhibition assay; assay type: biochemical; details: footnote d not shown: inhibition or residual activity and concentration unknown
[4] = target: T1, hAChE (human acetylcholinesterase); assay: biochemical

T1 sequence (P22303 32-614): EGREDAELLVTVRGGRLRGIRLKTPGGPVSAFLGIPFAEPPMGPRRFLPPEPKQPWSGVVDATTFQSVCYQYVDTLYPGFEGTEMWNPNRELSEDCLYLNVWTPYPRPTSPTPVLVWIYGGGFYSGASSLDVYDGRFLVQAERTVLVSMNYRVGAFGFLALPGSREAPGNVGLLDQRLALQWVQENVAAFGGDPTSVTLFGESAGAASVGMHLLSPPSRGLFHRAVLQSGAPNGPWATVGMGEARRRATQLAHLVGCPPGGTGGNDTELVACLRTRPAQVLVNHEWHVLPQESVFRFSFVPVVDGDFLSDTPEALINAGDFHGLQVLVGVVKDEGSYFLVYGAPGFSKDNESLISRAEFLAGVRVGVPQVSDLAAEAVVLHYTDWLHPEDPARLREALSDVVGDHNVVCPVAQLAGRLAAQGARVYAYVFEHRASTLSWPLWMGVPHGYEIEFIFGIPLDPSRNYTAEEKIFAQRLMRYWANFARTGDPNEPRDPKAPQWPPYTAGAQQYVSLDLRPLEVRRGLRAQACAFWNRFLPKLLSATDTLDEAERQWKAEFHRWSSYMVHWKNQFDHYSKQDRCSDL

CN(CCC1CCCCCC1)Cc1c[nH]c2c(N(C)C(=O)Oc3ccccc3)cccc12 [compound 10]
IC50 [1]: 21.2 µM

CN(CCC1CCCCCC1)Cc1c[nH]c2c(N(C)C(=O)F)cccc12 [compound 6]
IC50 [1]: 0.177 ± 0.006 µM | half-life [2]: ~4 days

CN(CCC1CCCCCC1)Cc1c[nH]c2c(N(C)C(=O)OC(C(F)(F)F)C(F)(F)F)cccc12 [compound 8]
IC50 [1]: 25.8 µM

CN(CCC1CCCCCC1)Cc1c[nH]c2c(N(C)C(=O)n3cnc([N+](=O)[O-])c3)cccc12 [compound 27]
IC50 [1]: 15.9 µM

CN(CCC1CCCCCC1)Cc1c[nH]c2c(N(C)C(=O)OCC(F)(F)F)cccc12 [compound 7]
% (footnote d) [3]: 51.6 ± 0.8%

CN(CCC1CCCCCC1)Cc1c[nH]c2c(N(C)C(=O)Sc3nncn3C)cccc12 [compound 22]
IC50 [1]: 21.8 µM | half-life [2]: ~25 days

CN(CCC1CCCCCC1)Cc1c[nH]c2c(NC(=O)n3ccnc3)cccc12 [compound 33, N-(3-(((2-Cycloheptylethyl)(methyl)amino)methyl)-1H-indol-7-yl)-1H-imidazole-1-carboxamide]
IC50 [4]: 17.3 µM

CN(CCC1CCCCCC1)Cc1c[nH]c2c(N(C)C(=O)n3ccnc3)cccc12 [compound 26]
IC50 [1]: 47.3 µM | half-life [2]: ~14 days

CN(CCC1CCCCCC1)Cc1c[nH]c2c(N(C)C(=O)Sc3nnnn3C)cccc12 [compound 23]
IC50 [1]: 16.9 µM | half-life [2]: ~38 days

CN(CCC1CCCCCC1)Cc1c[nH]c2c(N(C)C(=O)OC(C(F)(F)F)(C(F)(F)F)C(F)(F)F)cccc12 [compound 9]
IC50 [1]: 6.7 µM

CN(CCC1CCCCCC1)Cc1c[nH]c2c([Te]C(=O)N(C)C)cccc12 [compound 4]
IC50 [1]: 13.2 µM

CN(CCC1CCCCCC1)Cc1c[nH]c2c([Se]C(=O)N(C)C)cccc12 [compound 3]
IC50 [1]: 9.75 µM

CN(CCC1CCCCCC1)Cc1c[nH]c2c(N(C)C(=O)On3ccnc3)cccc12 [compound 14]
IC50 [1]: 24.2 µM | half-life [2]: ~18 days

CN(CCC1CCCCCC1)Cc1c[nH]c2c(N(C)C(=O)[Se]c3ccccc3)cccc12 [compound 25]
% (footnote d) [3]: 53.6 ± 2.7%

CN(CCC1CCCCCC1)Cc1c[nH]c2c(SC(=O)N(C)C)cccc12 [compound 2]
IC50 [1]: 11.1 µM

CN(CCC1CCCCCC1)Cc1c[nH]c2c(N(C)C(=O)Oc3c(F)c(F)c(F)c(F)c3F)cccc12 [compound 11]
IC50 [1]: 0.788 ± 0.176 µM

CC[Se]C(=O)N(C)c1cccc2c(CN(C)CCC3CCCCCC3)c[nH]c12 [compound 24]
IC50 [1]: 30.2 µM
